Reference: patent publication EP3250181B1, “MINOXIDIL-BASED PHARMACEUTICAL FORMULATION FOR THE TOPICAL USE AND KIT THEREOF” (Farmalabor S.r.l., priority 2014, dated 2016)

What was measured:
[1] = Stability, first study: real storage conditions, HPLC; settings: formulation A, room temperature, both in the presence and in the absence of light
[2] = Stability, second study: cold-warm cycle in climate room for 60 hours; settings: formulation A, 4°C/25°C/40°C cycle, dark or UV/Vis light

Nc1cc(N2CCCCC2)nc(N)[n+]1[O-] [Minoxidil]
stability of Minoxidil in the gel [1]: stable in the gel for 5 weeks | chemical stability after cold-heat shock [2]: chemical stability of Minoxidil into the gel also after a cold-heat shock
